Test results: US20250262209A1, “TREATMENT OF GASTROINTESTINAL DISEASES” (Aclipse Two, Inc., priority 2022, published 2025)

Legend:
[1] = tested on: DSS-induced IBD model in female Balb/c mice; experiment: DSS-induced IBD model: body weight, DAI score, colon length and weight; format: in vivo; conditions: for DAI score: lobeglitazone groups (0.36, 1.20, 3.61 mg/kg PO QD)
Method: The purpose of this study was to test the efficacy of compound lobeglitazone in the DSS-induced IBD model in female Balb/c mice following oral administration. The study was conducted at an AAALAC accredited facility, and all animal study procedures were approved by the Institutional Animal Care and Use Committee (IACUC).
Precise amount of lobeglitazone sulfate (lot: EW34258-13-P1; purity: 97.6%) was weighted out into a clean tube, 0.5% CMC was added and vortexed fully, then sonicated 2-3 minutes to get an even suspension. The concentration of the solution was 0.361 mg/ml, 0.120 mg/mL, and 0.036 mg/mL. The dosing solution was freshly made daily until the end of the study. The compound was orally (PO), 10 mL/kg daily dosed for 10 days.
Totally 125.82 mg cyclosporin A (CSA, purity 98%) was weighed out into a clean tube, 2.055 mL castor oil was added firstly, then 39.046 mL […] (with 0.1% tween80) was added, vortexed fully, then sonicated 10 min to get a clear solution. The concentration of the solution was 3 mg/mL. The compound was PO, 10 mL/kg daily dosed for 10 days.
5% DSS preparation: […] DSS powder was weighted out into a clean bottle, 1 L Milli Q water was added subsequently, the solution was stirred until it was clear. Then 5% DSS was transferred to water bottle of the animal. 5% DSS was freshly made daily until the end of the study.
A total of 50 (7 weeks old) female Balb/c were purchased from Beijing Vital River Laboratory Animal Technology Co., Ltd. Animals were acclimatized for 1 week prior to the experiment. All the in vivo experimental procedures were approved by the institutional animal care and use committee (IACUC). All euthanasia was performed using carbon dioxide inhalation and all efforts were made to minimize animal suffering.
At the beginning of the study, randomization was performed based on body weight. All animals were randomly assigned to one of six groups (Table 1). The study schedule is described in FIG. 1.
DAI score was calculated by the sum of weight loss score, stool consistency score, and occult-gross bleeding score. Body weight loss was calculated by comparison with the body weight on day 1. Feces samples were collected from each individual animal, and stool consistency and occult-gross bleeding were evaluated according to Table 2. Stool Consistency was evaluated by the appearance of the feces. Occult-gross bleeding was evaluated using Fecal Occult Blood test strips. Occult bleeding score of 1 will be assigned if light or dark purple color developed within 20 seconds and longer than 15 seconds. Occult bleeding score of 2 was assigned if light or dark purple color developed within 15 seconds. Occult-gross bleeding score of 3 would be assigned if blood was visible in the feces.
Animals were euthanized by CO2 at the end of study. Colon length and colon weight (cecum is not included) were recorded, and macroscopic changes were scored based on Table 2. The colon was cleaned using saline, and all feces were removed before weight measurement. The middle part of colon was collected in cassette and fixed in 10% neutral buffered formalin (NBF) for H&E and PAS staining. For left colon, mucosal from colon surface was removed and then snap frozen in liquid nitrogen and store at −80° C. for QT-PCR analysis of TNF-α, IL-10, CCL2, and IL-1β. QT-PCR primers were purchased from Sangon Biotech Co., Ltd.
In vivo animal data were presented as mean±SEM. Statistical analysis was performed by one-way ANOVA followed by Dunnett's multiple comparison. […] The difference was considered significance when p<0.05.

[2] = tested on: monocytes differentiated to M1 macrophage; experiment: M1 macrophage differentiation assay; format: cell-based, human; conditions: TNF-α, IL-1b, IL-6, IL-12, IL-23 in supernatant on day 7 (MSD); concentrations of Table 9
Source text: The purpose of this study was to evaluate the effects of lobeglitazone and other thiazolidinediones on M1 macrophage differentiation. The test articles and vehicles used in this study were lobeglitazone sulfate, pioglitazone HCl, and rosiglitazone.
M1 macrophage differentiation assay timeline was as follows in Table 8.
Drug concentrations tested in the M1 differentiation assay are as in Table 9.
• (1) Revive frozen monocytes. • (2) Count cells and adjust the cell density to 0.5×10^6 cells/ml with fresh complete differentiation medium (RPMI1640+10% FBS+1% PS plus GM-CSF or M-CSF at 50 ng/ml). • (3) Seed isolated monocyte 100 μL per well on 96-well plate. • (4) Add test articles as the plate map using D300e (final concentration in μM). • (5) Differentiate the monocyte to macrophage in the presence of GM-CSF to M1, or M-CSF to M2 for 5 days. • (6) On day 5, add cytokines at 2× final concentration. • (6a) Prepare medium containing GM-CSF for M1 and M-CSF for M2. • (6b) Add corresponding activator to reach 2× final working concentration: (i) IFNγ stock 0.2 mg/ml: add 2.5 μL stock into 5 ml complete differentiation medium for 100 ng/ml; (ii) LPS stock 1.0 mg/ml: dilute to 20 μg/ml by mixing 2 μL stock into 100 μl medium; then add 10 μl 20 μg/ml LPS to 5 ml complete differentiation medium for 40 ng/ml; (iii) IL-4 stock 0.1 mg/ml: dilute 2 μL stock into 5 ml complete differentiation medium for 40 ng/ml. • (6c) Add 100 μL cytokine containing differentiating medium to each well, and total volume of each well is 200 μL. • (6d) Add test compound again using D300e. Make sure to set the final volume as 200 μL. • (7) Incubate cytokine and test compound for 48 hours. • (8) On day 7, spin down the plates at 300×g for 5 min and collect the supernatant for cytokine quantification using MSD. • (9) M1 associated macrophage cytokines TNF-α, IL-1b, IL-6, IL-12, and IL-23 were quantified.

[3] = lobeglitazone groups (0.36, 1.20, 3.61 mg/kg PO QD 10 days), vs control group

Q: Which body weight changes ([1]; 0.36 mg/kg PO QD, vs control group) does the source give for COc1ccc(Oc2cc(N(C)CCOc3ccc(CC4SC(=O)NC4=O)cc3)ncn2)cc1 (stereo not drawn) [lobeglitazone, 5-(4-(2-((6-(4-Methoxyphenoxy)pyrimidin-4-yl)(methyl)amino)ethoxy)benzyl)thiazolidine-2,4-dione] here?
A: The body weight changes was “no significant body weight changes”.

Q: What about the body weight changes ([1]; 1.20 mg/kg PO QD, vs control group) of the same compound?
A: Its body weight changes is “no significant body weight changes”.

Q: And the body weight changes ([1]; 3.61 mg/kg PO QD, day 2, vs control (no drug) group)?
A: Its body weight changes is “significantly reduced”.

Q: And the colon length [1, 3]?
A: Its colon length is “did not significantly increase”.

Q: And the colon length/weight ratio [1, 3]?
A: The colon length/weight ratio was “did not significantly decrease”.

Q: And the colon weight [1, 3]?
A: Its colon weight is “did not significantly change”.

Q: And the DAI score ([1]; vs control group)?
A: Its DAI score is “did not significantly reduce”.

Q: What about the DAI score ([1]; vs control group, listed as Lobeglitazone) of the same compound?
A: Its DAI score is “did not significantly decrease”.

Q: What about the “M1 macrophage cytokines expression” value [2] of the same compound?
A: The value was “did not show the promotion”.
